In general, Ki refers to the equilibrium dissociation constant of an inhibitor or competing ligand from its target. A lower Ki goes with a stronger hold on the target.

These results are taken from patent US20250122225A1, “MASP-2 INHIBITORS AND METHODS OF USE” (Omeros Corporation, priority 2023, published 2025).

One experiment concerns the target T1, human α-thrombin (Homo sapiens, UniProt P00734).
T1 construct: enzyme (human α-thrombin (BioPharm® Lab.)) in assay buffer; purchased BioPharm® Lab
The experiment in a line: Enzymatic assay for thrombin (fluorogenic peptide substrate Boc-VPR-AMC). Format: biochemical. The procedure, abridged:
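Human α-thrombin was run with the fluorogenic substrate Boc-VPR-AMC in 20 mM Hepes pH 7.4, 140 mM NaCl, 0.1% Tween 20 at room temperature for 20 min, then stopped with 0.1 M acetic acid. % activity was normalized to DMSO and no-enzyme controls. Under linear conditions IC50 equalled Ki, except for tight-binding inhibitors.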

The target of another experiment is T2, MASP-2 (CCP1-CCP2-SP) (Homo sapiens, UniProt O00187).
T2 construct: 15 μL of Enzyme MASP-2 (CCP1-CCP2-SP) in Assay Buffer
T2 sequence (O00187 445-686 limits assumed): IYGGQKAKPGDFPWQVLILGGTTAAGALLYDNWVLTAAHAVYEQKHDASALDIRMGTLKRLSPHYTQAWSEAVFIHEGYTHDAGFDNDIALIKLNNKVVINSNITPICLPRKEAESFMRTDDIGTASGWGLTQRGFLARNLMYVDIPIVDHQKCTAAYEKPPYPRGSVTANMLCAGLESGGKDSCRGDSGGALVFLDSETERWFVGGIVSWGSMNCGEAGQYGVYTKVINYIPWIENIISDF
T2 sequence (O00187 287-444 partner limits assumed): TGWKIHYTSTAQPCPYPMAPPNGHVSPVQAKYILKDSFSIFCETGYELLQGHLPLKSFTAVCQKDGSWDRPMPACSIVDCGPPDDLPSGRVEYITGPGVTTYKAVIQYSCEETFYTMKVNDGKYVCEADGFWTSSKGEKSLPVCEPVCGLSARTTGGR
The experiment in a line: Enzymatic assay for MASP-2 inhibitory activity (fluorogenic substrate). Format: biochemical. The procedure, abridged:
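MASP-2 (CCP1-CCP2-SP) cleaved a fluorogenic substrate based on the C2 cleavage site in 20 mM HEPES pH 7.4, 140 mM NaCl, 0.1% Tween 20 at room temperature. After 20 min the reaction was stopped with 0.1 M acetic acid and fluorescence read. % activity was normalized to DMSO-only and no-enzyme controls; IC50 taken as Ki.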

Molecules are shown by their SMILES. Bounds are passed on as bounds.

Regarding `COc1cc(C)cc(CNc2ncc3n(c2=O)[C@H](C(=O)NCc2ccc(N)nc2C)C[C@@H]3Cc2ccccc2)c1` [Compound 138, (6S,8S)-N-((6-amino-2-methylpyridin-3-yl)methyl)-8-benzyl-3-((3-methoxy-5-methylbenzyl)amino)-4-oxo-4,6,7,8-tetrahydropyrrolo[1,2-a]pyrazine-6-carboxamide], the Ki at human α-thrombin and on MASP-2 (CCP1-CCP2-SP) was less than 500 nM throughout.
As to `Cc1cc2[nH]c(CNC(=O)[C@@H]3C[C@H](Cc4ccccc4)c4cnc(NC5CCC5)c(=O)n43)cc2cn1` [Compound 139, (6S,8S)-8-benzyl-3-(cyclobutylamino)-N-((6-methyl-1H-pyrrolo[3,2-c]pyridin-2-yl)methyl)-4-oxo-4,6,7,8-tetrahydropyrrolo[1,2-a]pyrazine-6-carboxamide], the results for the Ki at human α-thrombin and on MASP-2 (CCP1-CCP2-SP) were 10000 to 25000 nM and less than 500 nM, respectively.
On the same counts, the results for `COc1cc(C)cc(CNc2ncc3n(c2=O)[C@H](C(=O)NCc2cc4cnccc4[nH]2)C[C@@H]3Cc2ccccc2)c1` [Compound 141, (6S,8S)-N-((1H-pyrrolo[3,2-c]pyridin-2-yl)methyl)-8-benzyl-3-((3-methoxy-5-methylbenzyl)amino)-4-oxo-4,6,7,8-tetrahydropyrrolo[1,2-a]pyrazine-6-carboxamide] are 500 to 2500 nM and less than 500 nM.
On the same counts, the results for `O=C(NCc1cc2cnccc2[nH]1)[C@@H]1C[C@H](Cc2ccccc2)c2cnc(NC3CCC3)c(=O)n21` [Compound 142, (6S,8S)-N-((1H-pyrrolo[3,2-c]pyridin-2-yl)methyl)-8-benzyl-3-(cyclobutylamino)-4-oxo-4,6,7,8-tetrahydropyrrolo[1,2-a]pyrazine-6-carboxamide] are 2500 to 10000 nM and less than 500 nM.
On the same counts, the results for `O=C(NCc1cc2cnccc2[nH]1)[C@@H]1CCc2c(Cl)nc(NCc3cccc(-c4ccccc4)c3)c(=O)n21` [Compound 143, (S)—N-((1H-pyrrolo[3,2-c]pyridin-2-yl)methyl)-3-(([1,1′-biphenyl]-3-ylmethyl)amino)-1-chloro-4-oxo-4,6,7,8-tetrahydropyrrolo[1,2-a]pyrazine-6-carboxamide] are greater than 25000 nM and less than 500 nM.
Turning to `N#Cc1cccc(CNc2nc(Cl)c3n(c2=O)[C@H](C(=O)NCc2cc4cnccc4[nH]2)CC3)c1` [Compound 144, (S)-N-((1H-pyrrolo[3,2-c]pyridin-2-yl)methyl)-1-chloro-3-((3-cyanobenzyl)amino)-4-oxo-4,6,7,8-tetrahydropyrrolo[1,2-a]pyrazine-6-carboxamide], the Ki was 2500 to 10000 nM at human α-thrombin and less than 500 nM at MASP-2 (CCP1-CCP2-SP).
On to `O=C(NCc1cc2cnccc2[nH]1)[C@@H]1CCc2c(Cl)nc(NCC3CCc4ccccc4C3)c(=O)n21` (stereo partly drawn) [Compound 145, (6S)-N-((1H-pyrrolo[3,2-c]pyridin-2-yl)methyl)-1-chloro-4-oxo-3-(((1,2,3,4-tetrahydronaphthalen-2-yl)methyl)amino)-4,6,7,8-tetrahydropyrrolo[1,2-a]pyrazine-6-carboxamide], for which the Ki was greater than 25000 nM on human α-thrombin and less than 500 nM on MASP-2 (CCP1-CCP2-SP).
On to `Cc1nc(N)ccc1CNC(=O)[C@@H]1CCc2c(Cl)nc(NCC3COC3)c(=O)n21` [Compound 146, (S)-N-((6-amino-2-methylpyridin-3-yl)methyl)-1-chloro-3-((oxetan-3-ylmethyl)amino)-4-oxo-4,6,7,8-tetrahydropyrrolo[1,2-a]pyrazine-6-carboxamide], for which the inhibitory constant (Ki) at human α-thrombin lay within 10000 to 25000 nM; at MASP-2 (CCP1-CCP2-SP), 500 to 2500 nM.
Consider `O=C(NCc1cc2cnccc2[nH]1)[C@@H]1CCc2cnc(NCc3cccc(-c4ccccc4)c3)c(=O)n21` [Compound 147, (S)—N-((1H-pyrrolo[3,2-c]pyridin-2-yl)methyl)-3-(([1,1′-biphenyl]-3-ylmethyl)amino)-4-oxo-4,6,7,8-tetrahydropyrrolo[1,2-a]pyrazine-6-carboxamide], for which the figures for the Ki on human α-thrombin and on MASP-2 (CCP1-CCP2-SP) were 2500 to 10000 nM and less than 500 nM, respectively.
Take `O=C(NCc1cc2cnccc2[nH]1)[C@@H]1CCc2cnc(NCC3CCc4ccccc4C3)c(=O)n21` (stereo partly drawn) [Compound 148]: the inhibitory constant (Ki) on human α-thrombin was 500 to 2500 nM; at MASP-2 (CCP1-CCP2-SP), less than 500 nM.
As to `Cc1nc(N)ccc1CNC(=O)C1CCc2c(Cl)nc(NCc3cnccn3)c(=O)n21` (stereo not drawn) [Compound 149, N-((6-amino-2-methylpyridin-3-yl)methyl)-1-chloro-4-oxo-3-((pyrazin-2-ylmethyl)amino)-4,6,7,8-tetrahydropyrrolo[1,2-a]pyrazine-6-carboxamide], the Ki on human α-thrombin is 2500 to 10000 nM; on MASP-2 (CCP1-CCP2-SP) it was less than 500 nM.
`Cc1nc(N)ccc1CNC(=O)C1CCc2c(Cl)nc(NCc3cncnc3)c(=O)n21` (stereo not drawn) [Compound 150]: the Ki is 2500 to 10000 nM at human α-thrombin and less than 500 nM at MASP-2 (CCP1-CCP2-SP).
Turning to `CC[C@H]1C[C@@H](C(=O)NCc2cc3cnccc3[nH]2)n2c1cnc(NCc1ccccc1)c2=O` [Compound 151, (6S,8S)—N-((1H-pyrrolo[3,2-c]pyridin-2-yl)methyl)-3-(benzylamino)-8-ethyl-4-oxo-4,6,7,8-tetrahydropyrrolo[1,2-a]pyrazine-6-carboxamide], the Ki is 500 to 2500 nM at human α-thrombin and less than 500 nM on MASP-2 (CCP1-CCP2-SP).
Consider `C[C@H]1C[C@@H](C(=O)NCc2cc3cnccc3[nH]2)n2c1cnc(NCc1ccccc1)c2=O` [Compound 152, (6S,8S)-N-((1H-pyrrolo[3,2-c]pyridin-2-yl)methyl)-3-(benzylamino)-8-methyl-4-oxo-4,6,7,8-tetrahydropyrrolo[1,2-a]pyrazine-6-carboxamide], for which the Ki is 2500 to 10000 nM at human α-thrombin and less than 500 nM at MASP-2 (CCP1-CCP2-SP).
Take `Cc1cc(C)cc(CNc2ncc3n(c2=O)[C@H](C(=O)NCc2cc4cnccc4[nH]2)C[C@@H]3C)c1` [Compound 153, (6S,8S)-N-((1H-pyrrolo[3,2-c]pyridin-2-yl)methyl)-3-((3,5-dimethylbenzyl)amino)-8-methyl-4-oxo-4,6,7,8-tetrahydropyrrolo[1,2-a]pyrazine-6-carboxamide]: the figures for the Ki at human α-thrombin and on MASP-2 (CCP1-CCP2-SP) were 2500 to 10000 nM and less than 500 nM, respectively.
On to `CC[C@H]1C[C@@H](C(=O)NCc2ccc(N)nc2C)n2c1cnc(NCc1ccccc1)c2=O` [Compound 154, (6S,8S)-N-((6-amino-2-methylpyridin-3-yl)methyl)-3-(benzylamino)-8-ethyl-4-oxo-4,6,7,8-tetrahydropyrrolo[1,2-a]pyrazine-6-carboxamide], for which the Ki at human α-thrombin and on MASP-2 (CCP1-CCP2-SP) was less than 500 nM each time.
With `CC[C@H]1C[C@@H](C(=O)NCc2ccc(N)nc2C)n2c1cnc(NCc1cc(C)cc(C)c1)c2=O` [Compound 156, (6S,8S)-N-((6-amino-2-methylpyridin-3-yl)methyl)-3-((3,5-dimethylbenzyl)amino)-8-ethyl-4-oxo-4,6,7,8-tetrahydropyrrolo[1,2-a]pyrazine-6-carboxamide], the Ki at human α-thrombin and on MASP-2 (CCP1-CCP2-SP) was less than 500 nM throughout.
For the compound `CC[C@H]1C[C@@H](C(=O)NCc2ccc(N)nc2)n2c1cnc(NCc1cc(C)cc(C)c1)c2=O` [Compound 157, (6S,8S)-N-((6-aminopyridin-3-yl)methyl)-3-((3,5-dimethylbenzyl)amino)-8-ethyl-4-oxo-4,6,7,8-tetrahydropyrrolo[1,2-a]pyrazine-6-carboxamide], the Ki on human α-thrombin and on MASP-2 (CCP1-CCP2-SP) was less than 500 nM throughout.
